Key:
Assay in all cases: NADP+ reduction at […] nm, Michaelis-Menten fit
Assay type in all cases: biochemical
Settings in all cases: NADP+ (0.5 mM in standard assay), 50 mM Tris-HCl pH 8.0, 25 °C
Y1-a-1 = system: T1, Y1-a-1
T1 construct: full-length, GST fusion (pGEX-6P-1) expressed in E. coli BL21, GST tag cut off with PreScission protease; raw reads SRA SRP079591

H1-a-2 = system: T2, H1-a-2
T2 construct: full-length, GST fusion (pGEX-6P-1) expressed in E. coli BL21, GST tag cut off with PreScission protease; raw reads SRA SRP079591

S1-a-1 = system: T3, S1-a-1
T3 construct: full-length, GST fusion (pGEX-6P-1) expressed in E. coli BL21, GST tag cut off with PreScission protease; raw reads SRA SRP079591

S1-a-2 = system: T4, S1-a-2
T4 construct: full-length, GST fusion (pGEX-6P-1) expressed in E. coli BL21, GST tag cut off with PreScission protease; raw reads SRA SRP079591

H1-a-1 = system: T5, H1-a-1
T5 construct: full-length, GST fusion (pGEX-6P-1) expressed in E. coli BL21, GST tag cut off with PreScission protease; raw reads SRA SRP079591

Y1-b-1 = system: T6, Y1-b-1
T6 construct: full-length, GST fusion (pGEX-6P-1) expressed in E. coli BL21, GST tag cut off with PreScission protease; raw reads SRA SRP079591

SMILES	Km (Y1-a-1) [µM]	Km (H1-a-2) [µM]	Km (S1-a-1) [µM]	Km (S1-a-2) [µM]	Km (H1-a-1) [µM]	Km (Y1-b-1) [µM]
C[C@H](CCC(=O)NCCS(=O)(=O)O)[C@H]1CC[C@H]2[C@@H]3[C@H](O)C[C@@H]4C[C@H](O)CC[C@]4(C)[C@H]3CC[C@]12C [TCDCA]	556	695	132	263	390	–
C[C@H](CCC(=O)NCCS(=O)(=O)O)[C@H]1CC[C@H]2[C@@H]3[C@@H](O)C[C@@H]4C[C@H](O)CC[C@]4(C)[C@H]3CC[C@]12C [TUDCA]	–	–	–	–	–	6150
